According to US5149777A, “Human insulin analogs and preparations containing them” (Novo Nordisk A/S, priority 1991, dated 1992):

Tests used:
[1] = target: insulin receptors of isolated rat hepatocytes (Rattus norvegicus, UniProt P15127)
Description: (§1) The biological activity in vitro was determined by measuring the binding affinity to the insulin receptors of isolated rat adipocytes and hepatocytes essentially as described in J. Gliemann, S. Gammeltoft: Diabetologia 10, 105-113 (1974).

[2] = target: T1, insulin receptors of isolated rat adipocytes (Rattus norvegicus, UniProt P15127); test: Binding affinity to insulin receptors of isolated rat adipocytes; settings: relative to semisynthetic human insulin, potency set to 100%
T1 construct: endogenous in cells; host or cells: isolated rat adipocytes
T1 sequence (P15127 27-759 limits assumed): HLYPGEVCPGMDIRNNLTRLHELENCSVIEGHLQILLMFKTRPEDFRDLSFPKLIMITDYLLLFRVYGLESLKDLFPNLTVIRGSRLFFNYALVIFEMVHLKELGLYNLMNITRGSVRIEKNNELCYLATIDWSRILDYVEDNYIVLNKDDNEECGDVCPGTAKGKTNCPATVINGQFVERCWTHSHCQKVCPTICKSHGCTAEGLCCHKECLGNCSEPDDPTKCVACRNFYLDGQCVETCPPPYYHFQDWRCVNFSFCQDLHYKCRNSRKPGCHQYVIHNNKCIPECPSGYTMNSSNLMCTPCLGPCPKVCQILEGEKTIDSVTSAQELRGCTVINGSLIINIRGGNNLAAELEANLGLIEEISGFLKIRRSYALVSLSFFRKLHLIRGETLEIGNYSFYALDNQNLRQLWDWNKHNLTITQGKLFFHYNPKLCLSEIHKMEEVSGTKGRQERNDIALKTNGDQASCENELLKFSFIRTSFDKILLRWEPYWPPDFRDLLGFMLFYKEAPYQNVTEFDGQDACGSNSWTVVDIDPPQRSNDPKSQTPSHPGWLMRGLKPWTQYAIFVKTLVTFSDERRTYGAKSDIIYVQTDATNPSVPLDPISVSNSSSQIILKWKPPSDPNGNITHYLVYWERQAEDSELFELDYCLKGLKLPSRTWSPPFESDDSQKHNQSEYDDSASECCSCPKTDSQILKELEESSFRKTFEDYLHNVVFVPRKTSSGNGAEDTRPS
T1 sequence (P15127 764-1383 partner limits assumed): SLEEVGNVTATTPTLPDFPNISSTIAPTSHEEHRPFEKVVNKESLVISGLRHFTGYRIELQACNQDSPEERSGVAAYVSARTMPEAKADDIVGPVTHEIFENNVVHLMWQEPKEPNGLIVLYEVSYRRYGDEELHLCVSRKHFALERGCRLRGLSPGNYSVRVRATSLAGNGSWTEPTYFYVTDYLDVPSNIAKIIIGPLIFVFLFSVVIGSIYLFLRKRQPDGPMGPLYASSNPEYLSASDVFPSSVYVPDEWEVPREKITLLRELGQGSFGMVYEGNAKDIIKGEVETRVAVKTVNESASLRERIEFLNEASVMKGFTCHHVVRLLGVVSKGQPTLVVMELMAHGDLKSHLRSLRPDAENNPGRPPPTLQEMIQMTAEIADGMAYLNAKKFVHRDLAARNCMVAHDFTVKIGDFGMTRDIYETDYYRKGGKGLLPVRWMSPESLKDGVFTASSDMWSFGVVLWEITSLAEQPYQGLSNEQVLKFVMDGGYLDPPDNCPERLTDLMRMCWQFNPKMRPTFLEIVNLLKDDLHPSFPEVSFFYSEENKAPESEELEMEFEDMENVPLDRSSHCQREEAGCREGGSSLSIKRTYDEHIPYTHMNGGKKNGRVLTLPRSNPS
Description: as §1

Sequence of insulin receptors of isolated rat hepatocytes (P15127 27-759 limits assumed): as the sequence (P15127 27-759 limits assumed) above
Sequence of insulin receptors of isolated rat hepatocytes (P15127 764-1383 partner limits assumed): as the sequence (P15127 764-1383 partner limits assumed) above

Biological activity in vitro (binding affinity), Adipocytes [2] | Substance | Biological activity in vitro (binding affinity), Hepatocytes [1]
150% | [His^B25 ]-human insulin | 142%
130% | [His^B25, Asp^B28 ]-des[Thr^B30 ]-human insulin | 135%
201% | [Tyr^B25, Asp^B28 ]-human insulin | 138%
356% | [Tyr^B25 ]-human insulin | 222%
